Earlier results in US20190263927A1, “COMBINATION OF A PD-1 ANTAGONIST AND ERIBULIN FOR TREATING UROTHELIAL CANCER” (Merck Sharp & Dohme Corp., priority 2016, published 2019).

Test system: patients with metastatic UC (mUC)
Details: eribulin monotherapy; patients with metastatic/advanced UC; NCI Protocol No. 7435

C=C1C[C@@H]2CC[C@@]34C[C@H]5O[C@H]6[C@@H](O3)[C@H]3O[C@H](CC[C@@H]3O[C@H]6[C@H]5O4)CC(=O)C[C@@H]3[C@@H](OC)[C@@H](C[C@H](O)CN)O[C@H]3C[C@H]3O[C@@H](CC[C@@H]1O2)C[C@@H](C)C3=C [Eribulin]
clinical benefit for treatment of patients with mUC: provide clinical benefit
